Assay: Oxygen content of suspensions by glucose assay solution (glucose oxidase/peroxidase, absorbance at 540 nm) and Equation 1
Assay type: physicochemical
Details: 37° C., 1 AP
Experimental: To confirm the oxygen carrying capability of the single coated nanoemulsion particle AOCs, the amount of dissolved oxygen in water was measured. The linear dependence of the absorbance at 540 nm in response to the concentration of glucose was first confirmed at 37° C. in the presence of sufficient amount of oxygen, and then the limiting amount of oxygen concentration was estimated in the presence of sufficient amount of glucose. […] The DI water was added to make the total volume 1.41 μl and the absorbance determined at 540 nm. The absorbance was plotted against the molar concentration of dissolved oxygen assuming that the air at 1 AP and 37° C., water contains 215.6 μmol/L of O2. The experimentally determined oxygen content in the coated AOC suspension is a composite of oxygen content in water and in the perfluorocarbon. Quantitatively, CO2 total=CO2 PFC VPFC+CO2 water Vwater=CO2 PFC VPFC+CO2 water(1−VPFC) (Equation 1) where, CO2 total is the total oxygen concentration of the sample, and CO2 PFC and CO2 water are the concentrations of oxygen in PFC and water at a given partial pressure of oxygen and temperature, and similarly V's are the volume fractions of PFC and water. […] The reaction was allowed to proceed for 30 minutes at 37° C. and the absorption was measured at 540 nm in order to estimate the amount of oxygen present in the uncoated and coated products.

In the case of `FC(F)(F)C(F)(F)C(F)(F)C(F)(F)C(F)(F)C(F)(F)C(F)(F)C(F)(F)Br` [emulsified PFOB, perfluorooctylbromide], the “oxygen content, estimated CSAT” value is reported as 3,640 μmol/L.

Source: US9415021B2, “Synthesis of oxygen carrying, turbulence resistant, high density submicron particulates” (Nanoshell Company, LLC, priority 2009, dated 2016)
